Measurements published in patent US7018839B2 (priority 1996, dated 2006).
No end group written: not given here.

How the values were obtained:
substantia nigra = test: Behavioural studies: infusion into one substantia nigra, amphetamine challenge, circling; assay type: in vivo, rats; conditions: infused unilaterally into the substantia nigra
Experimental: In these experiments, rats were chronically implanted with a cannula in one substantia nigra and left to recover. After a period of about 3 days, they were infused with either a saline control solution, or a solution containing the 14-mer AChE peptide of the invention at a dose of 1 μl of 10^−5M. After a single infusion, they were challenged daily with a systemic application of amphetamine for the subsequent 10 days.

[1] = test system: hippocampal cells in organotypic cultures; test: Organotypic hippocampal tissue culture toxicity (trypan blue, LDH, AChE immunocytochemistry); assay type: cell-based, rats; conditions: for cellular damage in hippocampal sections compared to control samples: semi-acute application for 1 hour, AChE-peptide and/or NMDA
Experimental: The organotype tissue culture technique requires postnatal (day 5–7) rats given terminal anaesthesia followed by decapitation. Sections of hippocampus, 400 μm thick, are prepared and then plated on a plasma/thrombin clot. A serum-based media is added to these cultures, which can then be maintained at constant temperature (35° C.) for up to 21 days. After each study, cultures are stained with trypan blue to assess cell viability, in addition, after every removal of serum media, cultures are assayed for lactate dehydrogenase (LDH—a soluble cytoplasmic enzyme used as an index of cellular damage).
Following chronic studies (cultures are maintained for 21 days and treated with AChE-peptide and/or NMDA every 3–4 days), cultured cells are immunocytochemically stained for acetylcholinesterase in order to assess what action, if any, the AChE-peptide has on cell number.

[2] = test system: neurons in the substantia nigra
anti-peptide antibody = test: Competition assay for binding of antibody to immobilised AChE-peptide; parameters: species or system Rabbits; conditions: competitor preincubated with antibody in solution; APP and BuChE peptide at even excessive doses
Experimental: In order to be sure that the antibody recognition of peptides occurs without the possible distortion due to the binding of the peptide to a charged plastic surface, an assay was used in which the critical interaction is studied in solution. […] An aliquot of the antibody was preincubated with potential competitors for binding to the AChE-peptide before presenting the resulting mixture to the peptide bound to the well.

acetylcholinesterase [AChE]
circling behaviour (activity of the nigrostriatal pathway) (substantia nigra): long-term increase in circling behaviour

AEFHRWSSYMVHWK [AChE peptide]
LDH assays (biochemical studies) ([1]; chronic cultures, 21 days, treated every 3–4 days): support the proposed toxic action | toxicity detected histochemically ([1]; culture period of three weeks): Toxic effects are also detectable | interaction with excito-toxic effects of NMDA ([1]; organotypic cultures): synergistic | time of application until effect can be seen ([1]; organotypic cultures): one | toxic effects on hippocampal cells ([1]; organotypic cultures): direct toxic effects | cellular damage in hippocampal sections compared to control samples [1]: extensive cellular damage | state of the cell on application of NMDA after peptide treatment [2]: severe metabolic stress of the cell

AGFHRWNNYMMDWK [BuChE peptide]
competition for the binding of antibody to immobilised AChE-peptide (anti-peptide antibody): could not compete | calcium channel opening activity [2]: inactive | effect of the fragment alone on calcium potentials [2]: without corresponding effect | effect on the activity of the AChE fragment [2]: inactive

CN[C@H](CC(=O)O)C(=O)O [NMDA, N-methyl-D-aspartate, reference compound]
cellular damage in hippocampal sections compared to control samples [1]: extensive cellular damage

recombinant AChE
competition for the binding of antibody to immobilised AChE-peptide (anti-peptide antibody): effective competitor
